The target in this experiment is T1, NK1 receptor (Homo sapiens, UniProt P25103).
T1 construct: Measurement of NK1 Receptor Mediated Intracellular [Ca^2+]; Mobilization in U251 MG Cells Using FLIPR; endogenous in cells; host or cells: U251 MG cells
Description: NK1 receptor mediated intracellular [Ca2+] mobilization in U251 MG cells using FLIPR. The experiment is classed as cell-based. Particulars: antagonist potency against Substance P (EC80), normalized to 100 nM Aprepitant, read-out: U251MG (FLIPR pIC50) (converted). Here is the method: Measurement of NK1 Receptor Mediated Intracellular [Ca^2+] Mobilization in U251 MG Cells Using FLIPR
U251 MG cells were seeded into black walled clear-bottom 384-well plates (Greiner Bio-One GmbH, Frickenhausen, Germany) at a density of 15,000 cells/well in 50 μl culture medium and cultured overnight in a 37° C. 5% CO2 incubator. The cells were then loaded with the calcium sensitive dye Fluo-4 (Invitrogen) at 1 μM in buffer, containing 0.04%
Pluronic F-127 (Sigma-Aldrich), and 2.5 mM probenecid (Sigma-Aldrich) for 60 min in a humidified atmosphere of 5% CO2. Thereafter, cells were washed three times in washing buffer containing 20 mM HEPES and 2.5 mM probenecid pH 7.3. Serial dilutions of test compounds in assay buffer containing 2% dimethyl sulfoxide (final concentration in the cell plate is 0.5% DMSO) and/or agonist were then automatically pipetted into each test well, and the peak fluorescence intensity was recorded (lex, 488 nm; lem, 540 nm) by the FLIPR instrument (Molecular Devices) for approximately 5 min. To measure antagonist potency, cell plates were first incubated with the test compound and intracellular fluorescence recorded for 5 minutes to check a potential agonist effect of the test compound. Cell plates were quickly removed from the FLIPR instrument and incubated for additional 10 minutes at 37° C. before being moved back to the FLIPR instrument for Substance P (EC80) addition. The response was measured as the peak relative fluorescence change after agonist addition.
The IC50 value is defined as the molar concentration of a test compound that produces a response midway between the fitted top and the fitted bottom. pIC50=−log IC50
Formula is listed as follows: Fit(% Effect calculated)=(A+((B−A)/(1+((C/X)^D)))) • A: bottom value • B: top value • C: […] • D: Hill slope coefficient
Ref: Sullivan E, Tucker E M, and Dale I L. Measurement of [Ca^2+] using the Fluorometric Imaging Plate Reader (FLIPR). Methods Mol Biol 114:125-133, 1999.
Compounds of the present invention were tested according to example 120.

Where a name gives a salt, the structure may show the parent alone. Some results are limits rather than exact numbers.

T1 sequence (P25103 whole entry): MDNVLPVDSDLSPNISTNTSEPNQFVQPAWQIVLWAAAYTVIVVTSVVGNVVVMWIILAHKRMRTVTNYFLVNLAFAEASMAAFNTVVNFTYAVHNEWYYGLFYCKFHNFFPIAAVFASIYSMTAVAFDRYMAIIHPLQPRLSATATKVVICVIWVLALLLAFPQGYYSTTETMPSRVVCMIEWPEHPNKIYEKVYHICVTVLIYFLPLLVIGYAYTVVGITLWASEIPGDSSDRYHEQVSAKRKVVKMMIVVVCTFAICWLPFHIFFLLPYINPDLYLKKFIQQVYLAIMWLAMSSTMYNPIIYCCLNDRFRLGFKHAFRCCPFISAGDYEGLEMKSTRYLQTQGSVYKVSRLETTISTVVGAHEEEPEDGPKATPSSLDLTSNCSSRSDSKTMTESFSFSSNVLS

Regarding `Cc1ccccc1C1C2CC(CO)C(=O)N2CCN1C(=O)N(C)Cc1cc(C(F)(F)F)cc(C(F)(F)F)c1` (single isomer, unassigned) [Compound 20, N-{[3,5-bis(trifluoromethyl)phenyl]methyl}-7-(hydroxymethyl)-N-methyl-1-(2-methylphenyl)-6-oxo-octahydropyrrolo[1,2-a]piperazine-2-carboxamide], the IC50 is 1.66 nM.

Turning to `Cc1ccccc1C1C2CC(CO)C(=O)N2CCN1C(=O)N(C)[C@H](C)c1cc(C(F)(F)F)cc(C(F)(F)F)c1` (single isomer, unassigned) [Compound 58], the IC50 was 11.5 nM.

As for `Cc1ccccc1C1C2CC(CCO)C(=O)N2CCN1C(=O)N(C)C(CCO)c1cc(C(F)(F)F)cc(C(F)(F)F)c1` (single isomer, unassigned) [Compound 35, N-{1-[3,5-bis(trifluoromethyl)phenyl]-3-hydroxypropyl}-7-(2-hydroxyethyl)-N-methyl-1-(2-methylphenyl)-6-oxo-octahydropyrrolo[1,2-a]piperazine-2-carboxamide], the IC50 is 0.2 nM.

For `Cc1ccccc1C1C2CC(CO)C(=O)N2CCN1C(=O)N(C)Cc1cc(C(F)(F)F)cc(C(F)(F)F)c1` (single isomer, unassigned) [Compound 23, N-{[3,5-bis(trifluoromethyl)phenyl]methyl}-7-(hydroxymethyl)-N-methyl-1-(2-methylphenyl)-6-oxo-octahydropyrrolo[1,2-a]piperazine-2-carboxamide], the IC50 was 0.0776 nM.

Take `Cc1ccccc1[C@H]1[C@@H]2CC(CCO)(CCO)C(=O)N2CCN1C(=O)N(C)C(CCO)c1cc(C(F)(F)F)cc(C(F)(F)F)c1` (single isomer, unassigned) [Compound 81]: the IC50 is 0.12 nM.

As for `Cc1ccccc1C1C2CC(CO)CN2CCN1C(=O)N(C)Cc1cc(C(F)(F)F)cc(C(F)(F)F)c1` (single isomer, unassigned) [Compound 28, N-{[3,5-bis(trifluoromethyl)phenyl]methyl}-7-(hydroxymethyl)-N-methyl-1-(2-methylphenyl)-octahydropyrrolo[1,2-a]piperazine-2-carboxamide; methanesulfonic acid salt], the IC50 is 0.912 nM.

Take `Cc1ccccc1C1C2CC(CO)CN2CCN1C(=O)N(C)[C@H](C)c1cc(C(F)(F)F)cc(C(F)(F)F)c1` (single isomer, unassigned) [Compound 70]: the IC50 was 66.1 nM.

In the case of `Cc1ccccc1C1C2CC(CN3CCOCC3)C(=O)N2CCN1C(=O)N(C)Cc1cc(C(F)(F)F)cc(C(F)(F)F)c1` (single isomer, unassigned) [Compound 51], the IC50 was 0.12 nM.

For `Cc1ccccc1C1C2CCCN2CCN1C(=O)N(C)[C@H](C)c1cc(C(F)(F)F)cc(C(F)(F)F)c1` (single isomer, unassigned) [Compound 64], the IC50 is 42.7 nM.

`Cc1ccccc1C1C2CC(CO)CN2CCN1C(=O)N(C)Cc1cc(C(F)(F)F)cc(C(F)(F)F)c1` (single isomer, unassigned) [Compound 48, N-{[3,5-bis(trifluoromethyl)phenyl]methyl}-7-(hydroxymethyl)-N-methyl-1-(2-methylphenyl)-octahydropyrrolo[1,2-a]piperazine-2-carboxamide]: the IC50 was 0.224 nM.

With `COC(=O)C1(C)CC2C(c3ccccc3C)N(C(=O)N(C)Cc3cc(C(F)(F)F)cc(C(F)(F)F)c3)CCN2C1=O` (single isomer, unassigned) [Compound 14, Methyl 2-({[3,5-bis(trifluoromethyl)phenyl]methyl}(methyl)carbamoyl)-7-methyl-1-(2-methylphenyl)-6-oxo-octahydropyrrolo{1,2-a}piperazine-7-carboxylate], the IC50 was 0.0692 nM.

Regarding `Cc1ccccc1C1C2CC(CN3CCOCC3)C(=O)N2CCN1C(=O)N(C)[C@H](C)c1cc(C(F)(F)F)cc(C(F)(F)F)c1` (single isomer, unassigned) [Compound 72], the IC50 is 8.13 nM.

Consider `Cc1ccccc1C1C2CC(CN3CCOCC3)C(=O)N2CCN1C(=O)N(C)[C@H](C)c1cc(C(F)(F)F)cc(C(F)(F)F)c1` (single isomer, unassigned) [Compound 71], for which the IC50 was 28.2 nM.

With `Cc1ccccc1C1C2CC(CN3CCOCC3)C(=O)N2CCN1C(=O)N(C)[C@H](C)c1cc(C(F)(F)F)cc(C(F)(F)F)c1` (single isomer, unassigned) [Compound 73], the IC50 is 0.107 nM.

For `Cc1ccccc1C1C2CCC(=O)N2CCCN1C(=O)N(C)Cc1cc(C(F)(F)F)cc(C(F)(F)F)c1` (mixture of isomers) [Compound 7, N-{[3,5-bis(trifluoromethyl)phenyl]methyl}-N-methyl-1-(2-methylphenyl)-7-oxo-octahydro-1H-pyrrolo[1,2-a][1,4]diazepine-2-carboxamide], the IC50 was 1.07 nM.

For the molecule `Cc1ccccc1C1C2CC(CO)CN2CCN1C(=O)N(C)[C@H](C)c1cc(C(F)(F)F)cc(C(F)(F)F)c1` (single isomer, unassigned) [Compound 69], the IC50 was 0.214 nM.

For `Cc1ccccc1C1C2CC(CCO)(CCO)CN2CCN1C(=O)N(C)Cc1cc(C(F)(F)F)cc(C(F)(F)F)c1` (single isomer, unassigned) [Compound 65, N-{[3,5-bis(trifluoromethyl)phenyl]methyl}-7,7-bis(2-hydroxyethyl)-N-methyl-1-(2-methylphenyl)-octahydropyrrolo[1,2-a]piperazine-2-carboxamide], the IC50 is 30.2 nM.

Regarding `Cc1ccccc1C1C2CCCN2CCN1C(=O)N(C)Cc1cc(C(F)(F)F)cc(C(F)(F)F)c1` (single isomer, unassigned) [Compound 61, N-{[3,5-bis(trifluoromethyl)phenyl]methyl}-N-methyl-1-(2-methylphenyl)-octahydropyrrolo[1,2-a]piperazine-2-carboxamide], the IC50 was greater than 100 nM.

`Cc1cc(C)cc(CN(C)C(=O)N2CCN3C(=O)CCC3C2c2ccccc2C)c1` (single isomer, unassigned) [Compound 2, N-[(3,5-dimethylphenyl)methyl]-N-methyl-1-(2-methylphenyl)-6-oxo-octahydropyrrolo[1,2-a]piperazine-2-carboxamide]: the IC50 was 77.6 nM.

On to `Cc1ccccc1C1C2CC(CN3CCCC3)C(=O)N2CCN1C(=O)N(C)Cc1cc(C(F)(F)F)cc(C(F)(F)F)c1` (single isomer, unassigned) [Compound 31, N-{[3,5-bis(trifluoromethyl)phenyl]methyl}-N-methyl-1-(2-methylphenyl)-6-oxo-7-(pyrrolidin-1-ylmethyl)-octahydropyrrolo[1,2-a]piperazine-2-carboxamide], for which the IC50 was 0.513 nM.

On to `CC(=O)N1CCN(CC2CC3C(c4ccccc4C)N(C(=O)N(C)Cc4cc(C(F)(F)F)cc(C(F)(F)F)c4)CCN3C2=O)CC1` (stereo not shown) [Compound 37, 7-[(4-acetylpiperazin-1-yl)methyl]-N-{[3,5-bis(trifluoromethyl)phenyl]methyl}-N-methyl-1-(2-methylphenyl)-6-oxo-octahydropyrrolo[1,2-a]piperazine-2-carboxamide], for which the IC50 was 0.309 nM.

In the case of `COC(=O)C1(C)CC2C(c3ccccc3C)N(C(=O)N(C)Cc3cc(C(F)(F)F)cc(C(F)(F)F)c3)CCN2C1=O` (stereo not shown) [Compound 11, Methyl 2-({[3,5-bis(trifluoromethyl)phenyl]methyl}(methyl)carbamoyl)-7-methyl-1-(2-methylphenyl)-6-oxo-octahydropyrrolo{1,2-a}piperazine-7-carboxylate], the IC50 is 0.813 nM.

Turning to `Cc1cc(C)cc(CN(C)C(=O)N2CCN3C(=O)CCC3C2c2ccccc2C)c1` (single isomer, unassigned) [Compound 1, N-[(3,5-dimethylphenyl)methyl]-N-methyl-1-(2-methylphenyl)-6-oxo-octahydropyrrolo[1,2-a]piperazine-2-carboxamide], the IC50 was 6.46 nM.

With `Cc1ccccc1C1C2CC(CO)C(=O)N2CCN1C(=O)N(C)Cc1cc(C(F)(F)F)cc(C(F)(F)F)c1` (single isomer, unassigned) [Compound 21, N-{[3,5-bis(trifluoromethyl)phenyl]methyl}-7-(hydroxymethyl)-N-methyl-1-(2-methylphenyl)-6-oxo-octahydropyrrolo[1,2-a]piperazine-2-carboxamide], the IC50 was 0.0407 nM.

As for `Cc1ccccc1C1C2CC(C)(C(=O)N(C)C)C(=O)N2CCN1C(=O)N(C)Cc1cc(C(F)(F)F)cc(C(F)(F)F)c1` (single isomer, unassigned) [Compound 25, 2-N-{[3,5-bis(trifluoromethyl)phenyl]methyl}-2-N,7-N,7-N,7-tetramethyl-1-(2-methylphenyl)-6-oxo-octahydropyrrolo[1,2-a]piperazine-2,7-dicarboxamide], the IC50 is 22.9 nM.

Source of the values: patent US9181259B2 (LEO PHARMA A/S, priority 2012, dated 2015).
